For orientation: IC50 means the concentration needed to halve the response being measured.

Consider 28 compounds from patent US7932262B2 (Novartis AG, priority 2006, dated 2011).

The test system of one experiment is A2780 cells. Put plainly: Cell Proliferation Assay (Cell Titer Glo), A2780. It counts as cell-based. Particulars: Homo sapiens, 72 h; A2780 cells, 3 days incubation; read-out: CPEC50 A2780. As to the method: IV. Cell Proliferation Assay Protocol:
A2780, PC-3, or PC3MM cells were seeded at 1000 cells/well in 100 μL/well (10.000 cells/mL) growth media in 96-well plates. Cells were allowed to adhere to the bottom of plates for 3-5 hours in a 37° C. 5% CO2 incubator. Compounds were dissolved in DMSO and then transferred to the cell plates. The cells were incubated with the compounds for 3 days in a 37° C. 5% CO2 incubator. The growth medium containing the compounds was then removed from the cells and fresh medium was added, followed by 100 μL of Cell Titer Glo assay reagent (Promega). This mixture was shaken for 1 minute and then incubated without shaking for 10 minutes. Activity determinations for the compounds were made by detection on a Trilux Instrument.
In general terms: Cellular ATP, detected with luciferase, serves as a proxy for viable cell number.

In the next experiment the target is T1, PDK1 kinase (Homo sapiens, UniProt O15530).
T1 sequence (O15530 1-556): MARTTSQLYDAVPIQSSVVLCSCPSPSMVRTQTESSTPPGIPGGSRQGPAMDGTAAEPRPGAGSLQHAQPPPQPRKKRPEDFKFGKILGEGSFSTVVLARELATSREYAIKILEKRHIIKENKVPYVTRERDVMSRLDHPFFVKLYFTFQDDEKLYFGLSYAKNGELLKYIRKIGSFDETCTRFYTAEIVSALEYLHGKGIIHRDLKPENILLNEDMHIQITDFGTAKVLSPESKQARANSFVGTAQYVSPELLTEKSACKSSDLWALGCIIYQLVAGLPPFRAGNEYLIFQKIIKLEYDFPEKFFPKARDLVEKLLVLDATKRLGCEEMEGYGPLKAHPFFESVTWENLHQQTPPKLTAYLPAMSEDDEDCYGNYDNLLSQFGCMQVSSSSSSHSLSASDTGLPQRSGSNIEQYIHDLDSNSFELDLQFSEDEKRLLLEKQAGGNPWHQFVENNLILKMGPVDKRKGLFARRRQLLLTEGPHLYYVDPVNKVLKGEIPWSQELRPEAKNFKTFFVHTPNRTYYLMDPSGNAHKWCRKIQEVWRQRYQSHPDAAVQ
Put plainly: PDK1 Kinase Alpha Screen Assay. The note with it: read-out: PDK1 IC50. It counts as biochemical. The procedure, abridged: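 PDK1 phosphorylated 50 nM biotinylated PDK1-4 peptide with 10 uM ATP in Tris pH 7.5, 10 mM MgCl2, 2 mM DTT, 2.5% DMSO for 3-18 hours. After EDTA stop, phosphopeptide was detected by AlphaScreen using phospho-(Ser/Thr) PKA substrate antibody with protein A/streptavidin beads, read after overnight incubation.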

The structures appear in SMILES notation. Bounds are passed on as bounds.

On to `CC(C)N1CCC(Oc2cccc3cnc(Nc4cccc(S(=O)(=O)N5CCOCC5)c4)nc23)CC1` [Compound 6, [8-(1-Isopropyl-piper-idin-4-yloxy)-quina-zolin-2-yl]-[3-(morpholine-4-sul-fonyl)-phenyl]-amine], for which the EC50 in the experiment on A2780 cells is less than 5 µM. The IC50 on PDK1 kinase is less than 5 µM.
Turning to `CN1CCN(S(=O)(=O)c2cccc(Nc3ncc4cccc(OC5CCNCC5)c4n3)c2)CC1` [Compound 7, [3-(4-Methyl-piper-azine-1-sulfonyl)-phenyl]-[8-(piperidin-4-yloxy)-quinazolin-2-yl]-amine], the EC50 in the experiment on A2780 cells is less than 5 µM. In addition, the IC50 on PDK1 kinase was less than 5 µM.
In the case of `CC(C)NS(=O)(=O)c1cccc(Nc2ncc3cccc(OC4CCNCC4)c3n2)c1` [Compound 8, N-Isopropyl-3-[8-(piperidin-4-yloxy)-quinazolin-2-yl-amino]-benzenesulfonamide], in the experiment with A2780 cells, the EC50 was less than 5 µM. Besides, the half-maximal inhibitory concentration (IC50) on PDK1 kinase was less than 5 µM.
As for `COCCNS(=O)(=O)c1cccc(Nc2ncc3cccc(OC4CCNCC4)c3n2)c1` [Compound 9, N-(2-Methoxy-ethyl)-3-[8-(piperidin-4-yloxy)-quinazolin-2-ylamino]-benzenesulfonamide], the EC50 with A2780 cells is less than 5 µM. In addition, the IC50 on PDK1 kinase was less than 5 µM.
As to `CN1CCN(S(=O)(=O)c2ccc(Nc3ncc4cccc(OC5CCNCC5)c4n3)cc2)CC1` [Compound 10, [4-(4-Methyl-piper-azine-1-sulfonyl)-phenyl]-[8-(piper-idin-4-yloxy)-quinazolin-2-yl]-amine], the EC50 in the experiment on A2780 cells is less than 5 µM. Besides, the IC50 at PDK1 kinase was less than 5 µM.
Turning to `O=S(=O)(NCCN1CCCC1)c1cccc(Nc2ncc3cccc(OC4CCNCC4)c3n2)c1` [Compound 15, 3-[8-(Piperidin-4-yl-oxy)-quinazolin-2-ylamino]-N-(2-pyrrolidin-1-yl-ethyl)-benzenesulfonamide], in the experiment on A2780 cells, the EC50 is 5 to 10 µM. Also, the IC50 at PDK1 kinase is less than 5 µM.
For the compound `O=S(=O)(NC1CC1)c1cccc(Nc2ncc3cccc(OC4CCNCC4)c3n2)c1` [Compound 16, N-Cyclopropyl-3-[8-(piperidin-4-yloxy)-quinazolin-2-ylamino]-benzenesulfonamide], the EC50 with A2780 cells was less than 5 µM. For the same compound, at PDK1 kinase, the IC50 is less than 5 µM.
Take `NS(=O)(=O)c1ccc(Nc2ncc3ccc(Br)c(OC4CCNCC4)c3n2)cc1` [Compound 17, 4-[7-Bromo-8-(piper-idin-4-yloxy)-quin-azolin-2-ylamino]-benzenesulfonamide]: in the experiment on A2780 cells, the EC50 is less than 5 µM. The IC50 on PDK1 kinase was less than 5 µM.
As for `NC(=O)c1ccc(-c2ccc3cnc(Nc4ccc(S(N)(=O)=O)cc4)nc3c2OC2CCNCC2)cc1` [Compound 19, 4-[8-(Piperidin-4-yl-oxy)-2-(4-sulfamoyl-phenylamino)-quinazolin-7-yl]-benzamide], the EC50 with A2780 cells was 5 to 10 µM. Further, the IC50 on PDK1 kinase is less than 5 µM.
On the same counts, the results for `NS(=O)(=O)c1ccc(Nc2ncc3ccc(-c4ccncc4)c(OC4CCNCC4)c3n2)cc1` [Compound 20, 4-[8-(Piperidin-4-yl-oxy)-7-pyridin-4-yl-quinazolin-2-ylamino]-benzenesulfonamide] are less than 5 µM and less than 5 µM.
For `Nc1ncc(-c2ccc3cnc(Nc4ccc(S(N)(=O)=O)cc4)nc3c2OC2CCNCC2)cn1` [Compound 22, 4-[7-(2-Amino-pyrimidin-5-yl)-8-(piperidin-4-yloxy)-quinazolin-2-ylamino]-benzenesulfonamide], the EC50 in the experiment with A2780 cells was in the range of 5 to 10 µM. On PDK1 kinase, the IC50 is less than 5 µM.
As for `N#Cc1ccc2cnc(Nc3ccc(S(N)(=O)=O)cc3)nc2c1OC1CCNCC1` [Compound 29, 4-[7-Cyano-8-(piperidin-4-yloxy)-quinazolin-2-ylamino]-benzenesulfonamide], the EC50 in the experiment on A2780 cells was less than 5 µM. Besides, the IC50 on PDK1 kinase was less than 5 µM.
Consider `NC(=O)c1ccc(Nc2ncc3cccc(OC4CCNCC4)c3n2)cc1` [Compound 30, 4-[8-(Piperidin-4-yloxy)-quinazolin-2-ylamino]-benzamide], for which the EC50 in the experiment on A2780 cells was less than 5 µM. Further, the half-maximal inhibitory concentration (IC50) at PDK1 kinase was less than 5 µM.
As for `NS(=O)(=O)c1ccc(Nc2ncc3cccc(O[C@H]4CCNC4)c3n2)cc1` [Compound 32, 4-[8-((S)-Pyrrolidin-3-yloxy)-quinazolin-2-ylamino]-benzenesulfonamide], the EC50 with A2780 cells is less than 5 µM. On PDK1 kinase, the IC50 is less than 5 µM.
For `NS(=O)(=O)c1ccc(Nc2ncc3cccc(OC4CN5CCC4CC5)c3n2)cc1` (centres unmarked) [Compound 33, 4-[8-(1-Aza-bicyclo[2.2.2]oct-3-yloxy)-quinazolin-2-ylamino]-benzenesulfonamide], in the experiment on A2780 cells, the EC50 is less than 5 µM. Further, the IC50 on PDK1 kinase is less than 5 µM.
With `CN1CC[C@H](Oc2cccc3cnc(Nc4ccc(S(N)(=O)=O)cc4)nc23)C1` [Compound 34, 4-[8-((S)-1-Methyl-pyrrolidin-3-yloxy)-quinazolin-2-ylamino]-benzenesulfonamide], the EC50 in the experiment on A2780 cells is less than 5 µM. Also, the IC50 at PDK1 kinase is less than 5 µM.
Turning to `CN1CC[C@@H](Oc2cccc3cnc(Nc4ccc(S(N)(=O)=O)cc4)nc23)C1` [Compound 38, 4-[8-((R)-1-Methyl-pyrrolidin-3-yloxy)-quinazolin-2-ylamino]-benzenesulfonamide], the EC50 in the experiment on A2780 cells is less than 5 µM. Also, at PDK1 kinase, the IC50 is less than 5 µM.
As for `CN1CCCC(Oc2cccc3cnc(Nc4ccc(S(N)(=O)=O)cc4)nc23)C1` (centres unmarked) [Compound 39, 4-[8-(1-Methyl-piperidin-3-yloxy)-quinazolin-2-ylamino]-benzenesulfonamide], the EC50 in the experiment with A2780 cells is less than 5 µM. In addition, the IC50 on PDK1 kinase was less than 5 µM.
Take `CC(C)N1CC(Oc2cccc3cnc(Nc4ccc(S(N)(=O)=O)cc4)nc23)C1` [Compound 47, 4-[8-(1-Isopropyl-azetidin-3-yloxy)-quinazolin-2-ylamino]-benzenesulfonamide]: in the experiment on A2780 cells, the EC50 is less than 5 µM. Also, on PDK1 kinase, the IC50 is less than 5 µM.
As to `NS(=O)(=O)c1ccc(Nc2ncc3cccc(OC4CNC4)c3n2)cc1` [Compound 48, 4-[8-(Azetidin-3-yloxy)-quinazolin-2-ylamino]-benzenesulfonamide], the EC50 in the experiment with A2780 cells fell in the range of 5 to 10 µM. The IC50 at PDK1 kinase was less than 5 µM.
As to `CC(C)CN1CC(Oc2cccc3cnc(Nc4ccc(S(N)(=O)=O)cc4)nc23)C1` [Compound 49, 4-[8-(1-Isobutyl-azetidin-3-yloxy)-quinazolin-2-ylamino]-benzenesulfonamide], in the experiment on A2780 cells, the EC50 is less than 5 µM. The IC50 at PDK1 kinase is less than 5 µM.
Consider `CCN1CC(Oc2cccc3cnc(Nc4ccc(S(N)(=O)=O)cc4)nc23)C1` [Compound 50, 4-[8-(1-Ethyl-azetidin-3-yloxy)-quinazolin-2-ylamino]-benzenesulfonamide], for which the EC50 in the experiment with A2780 cells was less than 5 µM. Further, the IC50 on PDK1 kinase is less than 5 µM.
In the case of `NS(=O)(=O)c1ccc(Nc2ncc3ccc(-c4ccc5c(c4)CCNC5=O)c(OC4CCNCC4)c3n2)cc1` [Compound 64, 4-[7-(1-Oxo-1,2,3,4-tetrahydro-isoquinolin-6-yl)-8-(piperidin-4-yloxy)-quinazolin-2-ylamino]-benzenesulfonamide], in the experiment with A2780 cells, the EC50 lay within 5 to 10 µM. For the same compound, the IC50 on PDK1 kinase was less than 5 µM.
On the same counts, the results for `CC(=O)c1ccc(-c2cccc3cnc(Nc4ccc(S(N)(=O)=O)cc4)nc23)cc1` [Compound 88, 4-[8-(4-Acetyl-phenyl)-quinazolin-2-ylamino]-benzenesulfonamide] are 5 to 10 µM and less than 5 µM.
On the same counts, the results for `NS(=O)(=O)c1ccc(Nc2ncc3cccc(-c4ccc(-c5ccn[nH]5)cc4)c3n2)cc1` [Compound 89, 4-{8-[4-(2H-Pyrazol-3-yl)-phenyl]-quinazolin-2-ylamino}-benzenesulfonamide] are less than 5 µM and less than 5 µM.
On the same counts, the results for `NC(=O)c1cccc(-c2cccc3cnc(Nc4ccc(S(N)(=O)=O)cc4)nc23)c1` [Compound 90, 3-[2-(4-Sulfamoyl-phenylamino)-quinazolin-8-yl]-benzamide] are less than 5 µM and less than 5 µM.
Turning to `CS(=O)(=O)c1cccc(-c2cccc3cnc(Nc4ccc(S(N)(=O)=O)cc4)nc23)c1` [Compound 91, 4-[8-(3-Methanesulfonyl-phenyl)-quinazolin-2-ylamino]-benzenesulfonamide], the EC50 in the experiment with A2780 cells is less than 5 µM. Also, on PDK1 kinase, the IC50 is less than 5 µM.
Consider `CS(=O)(=O)Nc1cccc(-c2cccc3cnc(Nc4ccc(S(N)(=O)=O)cc4)nc23)c1` [Compound 92, 4-[8-(3-Methanesulfonylamino-phenyl)-quinazolin-2-ylamino]-benzenesulfonamide], for which the EC50 with A2780 cells was less than 5 µM. Moreover, on PDK1 kinase, the IC50 is less than 5 µM.
